# Patent US11612601B1, “Targeting epidermal growth factor to treat vascular calcification” (THE FLORIDA INTERNATIONAL UNIVERSITY BOARD OF TRUSTEES, priority 2022, dated 2023)
# System: Primary human coronary artery vascular smooth muscle cells
# Experiment: In vitro calcification of VSMCs, Alizarin Red S staining
# Type: cell-based
# Settings: OS media, 2.5 μM, 28 days
# Protocol: Primary human coronary artery vascular smooth muscle cells, (VSMCs, ATCC, PCS-100-021) were cultured using vascular smooth muscle cell media and growth kit (ATCC, PCS-100-042). VSMCs (passage 4-6) were harvested using 0.05% trypsin-EDTA solution (Caisson Labs, TRL04) and seeded with a density of 26,320 cells.cm^−2 and incubated for 72 hours at 37° C., 5% CO2 with controlled humidity prior to treatment. VSMCs were treated with either control media, consisting of DMEM (HyClone, SH30022.01), 10% v/v bovine calf serum (iron-supplemented, R&D Systems, S11950), and 1% v/v penicillin-streptomycin (Gibco, 15070-063), or with an osteogenic media (OS) optimized to induce calcification. OS media were supplemented with 10 mM β-glycerophosphate (Sigma, 13408-09-8), 0.1 mM L-ascorbic acid (Sigma, 113170-55-1), and 10 nM dexamethasone (Sigma, 50-02-2).
# To assess the role of EGFR inhibition, tyrphostin AG1478 (Millipore Sigma, T4182) was dissolved in vehicle (DMSO:Methanol, 1:1) and added to OS media to a final concentration of 2.5 μM. An equal volume of vehicle was added to the control and OS groups. […]
# To quantify the in vitro calcification, ARS stain was extracted using acetic acid (1.67 M, Fisher Chemical, A38S) on a shaker. […] Sample absorbance of 405 nm was measured using a multi-mode reader (BioTek, Synergy HTX).
smiles,measurement,value
"COc1cc2ncnc(Nc3cccc(Cl)c3)c2cc1OC [AG1478, tyrphostin AG1478]",in vitro calcification of VSMCs (ARS staining),abrogated
